Experimental findings from paper PMC5926251 (Japanese Journal of Cancer Research : Gann, 2000) are described below.

Assay [1] addresses T1, DNA polymerase α (Bos taurus, UniProt A0AAA9TD94).
T1 sequence (A0AAA9TD94 1-1441): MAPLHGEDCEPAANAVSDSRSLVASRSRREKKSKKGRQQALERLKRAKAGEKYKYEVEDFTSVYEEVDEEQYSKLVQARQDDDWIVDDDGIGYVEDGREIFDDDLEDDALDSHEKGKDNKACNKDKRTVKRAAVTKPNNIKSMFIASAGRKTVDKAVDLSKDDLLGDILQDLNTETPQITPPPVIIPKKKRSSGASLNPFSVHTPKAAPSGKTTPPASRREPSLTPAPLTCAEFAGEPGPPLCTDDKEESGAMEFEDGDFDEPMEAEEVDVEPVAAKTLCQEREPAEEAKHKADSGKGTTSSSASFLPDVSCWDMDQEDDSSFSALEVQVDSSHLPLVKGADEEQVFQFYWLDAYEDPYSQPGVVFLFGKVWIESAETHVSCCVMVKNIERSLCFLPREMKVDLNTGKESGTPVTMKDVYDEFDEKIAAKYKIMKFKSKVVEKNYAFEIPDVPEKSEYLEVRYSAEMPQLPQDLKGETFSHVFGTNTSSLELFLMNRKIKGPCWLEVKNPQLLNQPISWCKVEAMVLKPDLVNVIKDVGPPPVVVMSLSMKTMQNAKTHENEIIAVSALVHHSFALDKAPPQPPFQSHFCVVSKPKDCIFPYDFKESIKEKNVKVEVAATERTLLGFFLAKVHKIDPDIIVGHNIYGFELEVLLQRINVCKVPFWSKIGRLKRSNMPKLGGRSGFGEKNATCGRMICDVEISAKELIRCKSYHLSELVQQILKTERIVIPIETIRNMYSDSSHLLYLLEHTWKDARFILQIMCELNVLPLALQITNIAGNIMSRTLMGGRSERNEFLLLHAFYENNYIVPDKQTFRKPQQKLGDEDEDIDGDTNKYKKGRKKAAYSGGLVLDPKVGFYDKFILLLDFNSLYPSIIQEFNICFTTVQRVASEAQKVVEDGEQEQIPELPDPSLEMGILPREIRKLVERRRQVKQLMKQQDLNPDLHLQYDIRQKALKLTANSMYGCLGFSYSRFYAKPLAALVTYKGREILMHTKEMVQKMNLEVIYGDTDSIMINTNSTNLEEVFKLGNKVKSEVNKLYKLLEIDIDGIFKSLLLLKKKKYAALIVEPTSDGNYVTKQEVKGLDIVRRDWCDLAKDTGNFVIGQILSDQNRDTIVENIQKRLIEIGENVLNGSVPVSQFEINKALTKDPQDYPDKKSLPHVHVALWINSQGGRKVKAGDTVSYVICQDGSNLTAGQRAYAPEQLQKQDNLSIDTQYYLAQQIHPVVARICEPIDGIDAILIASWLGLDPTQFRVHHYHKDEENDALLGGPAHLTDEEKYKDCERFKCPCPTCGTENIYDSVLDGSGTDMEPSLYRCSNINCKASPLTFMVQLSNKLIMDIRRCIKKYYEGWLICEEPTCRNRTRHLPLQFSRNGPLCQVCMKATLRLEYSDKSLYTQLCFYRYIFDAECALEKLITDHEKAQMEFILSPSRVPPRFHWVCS
The assay is described as follows: Kinetic analysis of pol. α inhibition. It is filed as biochemical, calf. The conditions noted are these: for Inhibitory mode: from Lineweaver Burk plot.

Assay [2] concerns the target DNA polymerase β (Rattus norvegicus, UniProt P06766). The assay can be described thus: Kinetic analysis of pol. β inhibition. It is filed as biochemical. The conditions noted are these: for Inhibitory mode: from Lineweaver Burk plot.
Assay [3] has as its target Taq DNA polymerase (Thermus aquaticus, UniProt P19821). The assay is described as follows: Taq DNA polymerase activity assay. The assay is classed as biochemical. Particulars: 20 µM compound, 0.05 units enzyme; Fig. 3.
Assay [4] addresses Bovine pancreas deoxyribonuclease I (Bos taurus, UniProt P00639). The assay is described as follows: Deoxyribonuclease I activity assay. The assay is classed as biochemical. Particulars: 20 µM compound, 0.05 units enzyme; Fig. 3.
Setting [5] is: nucleotide substrate dTTP, from Dixon plot.
The mark [6] stands for this setting: template-primer poly(dA)/oligo(dT)12-18, from Dixon plot.
The mark [7] stands for this setting: versus nucleotide substrate dTTP.

Sequence of Bovine pancreas deoxyribonuclease I (P00639 23-282): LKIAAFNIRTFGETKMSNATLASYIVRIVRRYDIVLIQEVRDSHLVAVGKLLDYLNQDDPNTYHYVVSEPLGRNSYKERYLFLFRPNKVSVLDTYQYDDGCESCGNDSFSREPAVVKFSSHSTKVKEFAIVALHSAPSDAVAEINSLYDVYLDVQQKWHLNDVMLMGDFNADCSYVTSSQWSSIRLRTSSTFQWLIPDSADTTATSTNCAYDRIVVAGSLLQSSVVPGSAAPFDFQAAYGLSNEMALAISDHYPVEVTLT
Sequence of Taq DNA polymerase (P19821 whole entry): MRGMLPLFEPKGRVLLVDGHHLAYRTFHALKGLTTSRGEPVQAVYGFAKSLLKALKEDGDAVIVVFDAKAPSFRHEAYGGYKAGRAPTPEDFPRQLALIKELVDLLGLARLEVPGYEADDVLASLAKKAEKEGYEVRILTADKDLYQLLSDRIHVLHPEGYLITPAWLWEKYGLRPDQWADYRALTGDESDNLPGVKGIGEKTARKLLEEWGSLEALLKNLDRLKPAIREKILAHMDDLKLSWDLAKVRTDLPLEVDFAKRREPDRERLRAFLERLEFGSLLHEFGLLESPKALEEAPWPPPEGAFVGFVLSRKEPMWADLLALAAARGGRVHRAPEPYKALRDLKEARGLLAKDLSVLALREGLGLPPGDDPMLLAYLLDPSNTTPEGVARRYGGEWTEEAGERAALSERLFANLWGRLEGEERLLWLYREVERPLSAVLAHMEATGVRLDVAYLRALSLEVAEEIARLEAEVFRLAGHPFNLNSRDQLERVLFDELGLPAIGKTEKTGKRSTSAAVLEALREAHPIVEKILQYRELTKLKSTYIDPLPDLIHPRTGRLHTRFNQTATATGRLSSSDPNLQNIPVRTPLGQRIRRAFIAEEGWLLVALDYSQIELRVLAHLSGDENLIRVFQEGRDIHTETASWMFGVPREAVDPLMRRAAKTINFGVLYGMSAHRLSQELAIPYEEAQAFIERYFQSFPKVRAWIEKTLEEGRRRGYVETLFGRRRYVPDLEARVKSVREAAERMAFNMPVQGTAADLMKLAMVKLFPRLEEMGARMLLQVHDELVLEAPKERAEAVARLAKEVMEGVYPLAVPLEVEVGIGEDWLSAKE

For `CCCCCCCCCCCCCCCCCC(=O)OC[C@H](CO[C@H]1O[C@H](CS(=O)(=O)O)[C@@H](O)[C@H](O)[C@H]1O)OC(=O)CCCCCCCCCCCCCCCCC` [C18--SQDG], the Ki in assay [1] (setting [5]) amounted to 0.6 µM; in assay [1] (setting [6]), 0.2 µM; in assay [2] (setting [5]), 36 µM; in assay [2] (setting [6]), 5 µM. Besides, the Vmax in assay [1] (nucleotide substrate dTTP, sulfolipid conc. 0.2) was found to be 170 pmol/h; in assay [1] (nucleotide substrate dTTP, sulfolipid conc. 0.4), 100 pmol/h; in assay [1] (nucleotide substrate dTTP, sulfolipid conc. 0.6) it was 56 pmol/h; in assay [1] (template-primer, sulfolipid conc. 0.2), 100 pmol/h; in assay [1] (template-primer, sulfolipid conc. 0.4) it was 56 pmol/h; in assay [1] (template-primer, sulfolipid conc. 0.6), 40 pmol/h. The Vmax in assay [2] (nucleotide substrate dTTP, one value printed for all sulfolipid conc.) was 38 pmol/h. Further, the Inhibitory mode result was “Non-competitive” in assay [1] (setting [7]), “Non-competitive” in assay [1] (versus template-primer), “Competitive” in assay [2] (setting [7]) and “Competitive” in assay [2] (versus template-primer). Further, the “Effect on Taq DNA polymerase activity” value in assay [3] was “hardly affected”. Besides, the “Effect on deoxyribonuclease I activity” value in assay [4] is on record as “hardly affected”.
